Results on 11 compounds are retold here after patent publication US11952365B2, “Anti-viral compounds” (Aligos Therapeutics, Inc., priority 2020, dated 2024).

Broadly, the IC50 is the concentration that gives 50% inhibition. In general, EC50 refers to the midpoint of the concentration-response curve.

One data set addresses HRV3C (Human rhinovirus 14, UniProt P03303). The data set is described as follows: HRV3C protease assay (duplex, SAMDI-MS). The format is biochemical, HRV. The note with it: HRV3C, 30 mins preincubation, read-out: HRV IC50. The gist of the method: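 Duplex format with 3CLpro; 30 min enzyme–compound preincubation, 30 min reaction with two peptide substrates, ambient temp. Stop: 0.5% formic acid, neutralized with 1% NaHCO3 (finals). Readout SAMDI-MS, product AUC over internal standard AUC; four-parameter IC50.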

For data set [1], the system named is human beta-coronavirus OC43. The data set is described as follows: microbe, parasite or virus in culture. The format is cell-based. The note with it: Betacoronavirus 1, OC43, HeLa, 144 h, OC43 in HeLa cells, 6 days at 33° C., read-out: EC50.
A short description of data set [2]: Cytotoxicity plates without OC43 virus (cell-titer-glo). It counts as cell-based, human. The note with it: human; HeLa cells without OC43 virus, class symbols. The gist of the method:
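HeLa cells seeded overnight, then treated with serially diluted compounds in 2% FBS EMEM, uninfected, in parallel with the OC43 antiviral plates. Incubated 6 days at 33 °C; viability read by CellTiter-Glo luminescence.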

Data set [3] has as its system SARS-CoV-2-GHB-03021/2020. The experiment in a line: SARS-CoV-2 Infection Model in Huh7 Cells. The format is cell-based. The note with it: Severe acute respiratory syndrome coronavirus 2, Huh-7, 96 h, SARS-CoV-2, day 4 p.i., MTS.
Data set [4] has as its system SARS-CoV-2-GHB-03021/2020. The data set is described as follows: microbe, parasite or virus in culture. The note with it: Severe acute respiratory syndrome coronavirus 2, Vero C1008, 96 h; read-out: VeroE6 + CP (EC50). It counts as cell-based.
Another data set has as its target T1, human cathepsin L (Homo sapiens, UniProt P07711).
T1 construct: purchased R&D Systems
The data set is described as follows: cathepsin L assay. The note with it: 10 pM human cathepsin L, Z-FR-AMC 2 μM, class symbols. The format is biochemical. In short, it runs like this:
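Human cathepsin L at 10 pM was preincubated 30 min with compound, then reaction started with Z-FR-AMC (2 μM final). Fluorescence (355/460 nm) read every 2 min for 30 min; IC50 from four-parameter curve fit.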

Data set [5] can be described thus: in vitro. The note with it: human.
The nature of data set [6]: in vitro. The note with it: African green monkey, VeroE6 + CP (CC50), Vero E6-eGFP cells with CP-100356, absence of virus, MTS.
The next data set deals with 3CLpro (Severe acute respiratory syndrome coronavirus 2, UniProt P0DTD1). The experiment in a line: SARS-CoV-2 3CLpro protease assay (duplex, SAMDI-MS). The note with it: 3CLpro, 30 mins preincubation, class symbols; read-out: SARS-Cov-2 IC50. The arrangement: For the duplex assay, 3CLpro and HRV3C was added. The format is biochemical.

SMILES strings stand for the structures. Read-outs that look alike come from different tables or passages of the source. Bounds are passed on as bounds.

Take `Cc1cccc2[nH]c(C(=O)N3CCC4(CC4)C[C@H]3C(=O)N[C@@H](C[C@@H]3CCNC3=O)C(=O)C(=O)NC3CC3)cc12` [Compound 169]: the IC50 on HRV3C (class symbols) lay in the range of 0.2 to 2 µM; against human cathepsin L, 1 to 10 µM; at 3CLpro it was 0.02 to 0.2 µM. For the same compound, the EC50 in data set [1] (class symbols), in data set [3] (class symbols) and in [4] was 1 to 10 µM throughout. Further, in data set [2], the CC50 at 6 days was > 10 µM. For the same compound, the CC50 in “in vitro [5]” is > 10 µM; in the data set “in vitro [6]” (numeric bounds) it was > 50 µM.

On to `COc1cc(C(F)(F)F)cc2[nH]c(C(=O)N3C[C@@H]4CCC[C@@H]4[C@H]3C(=O)N[C@@H](C[C@@H]3CCNC3=O)C(=O)CO)cc12` [Compound 163, (1S,3aR,6aS)—N—((S)-4-hydroxy-3-oxo-1-((S)-2-oxopyrrolidin-3-yl)butan-2-yl)-2-(4-methoxy-6-(trifluoromethyl)-1H-indole-2-carbonyl)octahydrocyclopenta[c]pyrrole-1-carboxamide], for which the half-maximal inhibitory concentration (IC50) at HRV3C (class symbols) is 2 to 20 µM; against human cathepsin L it was ≥ 10 µM; at 3CLpro, < 0.02 µM. For the same compound, the results for the EC50 in data set [1] (class symbols), in data set [3] (class symbols) and in data set [4] were < 0.1 µM, 1 to 10 µM and 1 to 10 µM, respectively. In addition, the CC50 at 6 days in [2] was > 10 µM. The CC50 in the data set “in vitro [5]” and in the data set “in vitro [6]” (numeric bounds) was > 50 µM each time.

In the case of `O=C1NCC[C@H]1C[C@H](NC(=O)[C@@H]1[C@H]2CCC[C@H]2CN1C(=O)c1cc2c(Cl)cc(F)c(Cl)c2[nH]1)C(=O)CO` [Compound 162, (1S,3aR,6aS)-2-(4,7-dichloro-6-fluoro-1H-indole-2-carbonyl)-N-[(2S)-4-hydroxy-3-oxo-1-[(3S)-2-oxopyrrolidin-3-yl]butan-2-yl]-hexahydro-1H-cyclopenta[c]pyrrole-1-carboxamide], the results for the half-maximal inhibitory concentration (IC50) at HRV3C (class symbols), on human cathepsin L and on 3CLpro were 2 to 20 µM, ≥ 10 µM and < 0.02 µM, respectively. For the same compound, the EC50 was < 0.1 µM in data set [1] (class symbols), < 1 µM in [3] (class symbols) and < 1 µM in data set [4]. The CC50 at 6 days in data set [2] was > 10 µM. In addition, the CC50 in the data set “in vitro [5]” and in “in vitro [6]” (numeric bounds) was > 50 µM in each case.

On to `CS(=O)(=O)Oc1cccc2[nH]c(C(=O)N3C[C@@H]4CCC[C@@H]4[C@H]3C(=O)N[C@@H](C[C@@H]3CCNC3=O)C(=O)CO)cc12` [Compound 155, 2-[(1S,3aR,6aS)-1-{[(2S)-4-hydroxy-3-oxo-1-[(3S)-2-oxopyrrolidin-3-yl]butan-2-yl]carbamoyl}-hexahydro-1H-cyclopenta[c]pyrrole-2-carbonyl]-1H-indol-4-yl methanesulfonate], for which the 50% inhibitory concentration (IC50) on HRV3C (bound) is > 10 µM; against human cathepsin L, ≥ 10 µM; on 3CLpro, 0.02 to 0.2 µM. In addition, the figures for the EC50 in data set [1] (class symbols), in data set [3] (numeric bounds) and in data set [4] were 1 to 10 µM, > 50 µM and 10 to 100 µM, respectively. In addition, in [2], the CC50 at 6 days is > 10 µM. Besides, the CC50 in the data set “in vitro [5]” and in the data set “in vitro [6]” (numeric bounds) was > 50 µM each time.

In the case of `COc1cccc2[nH]c(C(=O)N3C[C@@H]4CCC[C@@H]4[C@H]3C(=O)N[C@@H](C[C@@H]3CCNC3=O)C(=O)C(=O)N[C@H]3CCOC3)cc12` [Compound 103], the half-maximal inhibitory concentration (IC50) was 0.2 to 2 µM on HRV3C (class symbols), ≥ 10 µM on human cathepsin L and 0.02 to 0.2 µM at 3CLpro. In addition, the EC50 in [1] (bound) is > 10 µM; in [3] (class symbols) it was 10 to 100 µM; in [4], 10 to 100 µM. Moreover, in data set [2], the CC50 at 6 days was > 10 µM. Also, the CC50 in “in vitro [5]” and in the data set “in vitro [6]” (numeric bounds) was > 100 µM each time.

As for `CCOC(=O)c1cc(C(=O)N2C[C@@H]3CCC[C@@H]3[C@H]2C(=O)N[C@@H](C[C@@H]2CCNC2=O)C(=O)CO)[nH]c1C` [Compound 85, ethyl 5-[(1S,3aR,6aS)-1-{[(2S)-4-hydroxy-3-oxo-1-[(3S)-2-oxopyrrolidin-3-yl]butan-2-yl]carbamoyl}-hexahydro-1H-cyclopenta[c]pyrrole-2-carbonyl]-2-methyl-1H-pyrrole-3-carboxylate], the figures for the half-inhibitory concentration (IC50) on HRV3C (class symbols), against human cathepsin L and at 3CLpro were 2 to 20 µM, ≥ 10 µM and 0.02 to 0.2 µM, respectively. Besides, the results for the EC50 in data set [1] (class symbols), in [3] (class symbols) and in data set [4] were 1 to 10 µM, 10 to 100 µM and 1 to 10 µM, respectively. Moreover, the CC50 at 6 days in [2] was > 10 µM. Moreover, the CC50 in “in vitro [5]” and in “in vitro [6]” (numeric bounds) was > 50 µM each time.

As to `O=C1NCC[C@H]1C[C@H](NC(=O)[C@@H]1[C@H]2CCC[C@H]2CN1C(=O)c1cc2c([nH]1)CCCC2)C(=O)CO` [Compound 83, (1S,3aR,6aS)—N-[(2S)-4-hydroxy-3-oxo-1-[(3S)-2-oxopyrrolidin-3-yl]butan-2-yl]-2-(4,5,6,7-tetrahydro-1H-indole-2-carbonyl)-hexahydro-1H-cyclopenta[c]pyrrole-1-carboxamide], the IC50 at HRV3C (bound) was > 10 µM; on human cathepsin L it was ≥ 10 µM; at 3CLpro, 0.02 to 0.2 µM. Further, the 50% effective concentration (EC50) in [1] (class symbols) was 0.1 to 1 µM; in data set [3] (class symbols), < 1 µM; in [4], < 1 µM. The CC50 at 6 days in data set [2] is > 10 µM. For the same compound, the CC50 in “in vitro [5]” and in the data set “in vitro [6]” (numeric bounds) was > 50 µM in each case.

Turning to `O=C1NCC[C@H]1C[C@H](NC(=O)[C@@H]1[C@H]2CCC[C@H]2CN1C(=O)c1ccc(-c2ccccc2)[nH]1)C(=O)CO` [Compound 144, (1S,3aR,6aS)—N-[(2S)-4-hydroxy-3-oxo-1-[(3S)-2-oxopyrrolidin-3-yl]butan-2-yl]-2-(5-phenyl-1H-pyrrole-2-carbonyl)-hexahydro-1H-cyclopenta[c]pyrrole-1-carboxamide], the concentration for half-maximal inhibition (IC50) on HRV3C (class symbols) is 2 to 20 µM; against human cathepsin L, ≥ 10 µM; at 3CLpro it was 0.02 to 0.2 µM. Besides, the results for the EC50 in data set [1] (class symbols), in data set [3] (class symbols) and in data set [4] were 0.1 to 1 µM, 1 to 10 µM and < 1 µM, respectively. For the same compound, the CC50 at 6 days in [2] is > 10 µM. Besides, the CC50 in the data set “in vitro [5]” is > 10 µM; in the data set “in vitro [6]” (numeric bounds), > 50 µM.

On to `C[C@@H]1C[C@@H](C(=O)N[C@@H](C[C@@H]2CCNC2=O)C(=O)C(=O)NCc2ccccc2)N(C(=O)c2cc3ccccc3[nH]2)C1` [Compound 25], for which the IC50 at HRV3C (class symbols) lay within 2 to 20 µM; at human cathepsin L, 0.1 to 1 µM; on 3CLpro, 2 to 20 µM. Further, the EC50 lay in the range of 1 to 10 µM in data set [1] (class symbols), 10 to 100 µM in [3] (class symbols) and 10 to 100 µM in data set [4]. For the same compound, the CC50 at 6 days in data set [2] is > 10 µM. Besides, the CC50 in the data set “in vitro [5]” and in “in vitro [6]” (numeric bounds) was > 100 µM each time.

On to `COc1cccc2[nH]c(C(=O)N3C[C@H]4[C@@H]([C@H]3C(=O)N[C@@H](C[C@@H]3CCCNC3=O)C(=O)COCc3ccccc3)C4(C)C)cc12` [Compound 49A, (1R,2S,5S)—N-[(2S)-4-(benzyloxy)-3-oxo-1-[(3S)-2-oxopiperidin-3-yl]butan-2-yl]-3-(4-methoxy-1H-indole-2-carbonyl)-6,6-dimethyl-3-azabicyclo[3.1.0]hexane-2-carboxamide], for which the IC50 on HRV3C (bound) is > 10 µM; at human cathepsin L, ≥ 10 µM; at 3CLpro, 0.02 to 0.2 µM. Further, the EC50 lay within 0.1 to 1 µM in data set [1] (class symbols), 1 to 10 µM in data set [3] (class symbols) and 1 to 10 µM in [4]. Moreover, the CC50 at 6 days in data set [2] is > 10 µM. Further, the CC50 in the data set “in vitro [5]” and in “in vitro [6]” (class symbols) was > 10 µM each time.

For `COc1cccc2[nH]c(C(=O)N3C[C@]4(C[C@H]3C(=O)NC(C[C@@H]3CCCNC3=O)C(=O)C(N)=O)CC4(F)F)cc12` (stereo partly drawn) [Compound 46, (3S,6S)—N-(4-amino-3,4-dioxo-1-((S)-2-oxopiperidin-3-yl)butan-2-yl)-1,1-difluoro-5-(4-methoxy-1H-indole-2-carbonyl)-5-azaspiro[2.4]heptane-6-carboxamide], the IC50 on HRV3C (class symbols) lay in the range of 0.2 to 2 µM; at human cathepsin L it was 1 to 10 µM; at 3CLpro it was 0.02 to 0.2 µM. Further, the EC50 in data set [1] (class symbols), in data set [3] (class symbols) and in [4] was 10 to 100 µM each time. Moreover, in [2], the CC50 at 6 days is > 10 µM. For the same compound, the CC50 was > 10 µM in the data set “in vitro [5]” and > 100 µM in the data set “in vitro [6]” (numeric bounds).
